Experimental data reported in patent US20080161288A1, “COMPOUNDS” (Pfizer Inc., priority 2006, published 2008).

What was measured:
[1] = target: T1, bovine beta-2 adrenoceptor (Bos taurus, UniProt Q28044); assay: cAMP assay in CHO cells transfected with the bovine beta-2 adrenoceptor; type: cell-based; details: cAMP (DiscoveRx Hit Hunter cAMP II) in CHO cells transfected with bovine beta-2 adrenoceptor, 30 minutes with compound, 0.5 mM IBMX
T1 construct: expressed in transfected cells; host or cells: CHO cells
T1 sequence (Q28044 whole entry): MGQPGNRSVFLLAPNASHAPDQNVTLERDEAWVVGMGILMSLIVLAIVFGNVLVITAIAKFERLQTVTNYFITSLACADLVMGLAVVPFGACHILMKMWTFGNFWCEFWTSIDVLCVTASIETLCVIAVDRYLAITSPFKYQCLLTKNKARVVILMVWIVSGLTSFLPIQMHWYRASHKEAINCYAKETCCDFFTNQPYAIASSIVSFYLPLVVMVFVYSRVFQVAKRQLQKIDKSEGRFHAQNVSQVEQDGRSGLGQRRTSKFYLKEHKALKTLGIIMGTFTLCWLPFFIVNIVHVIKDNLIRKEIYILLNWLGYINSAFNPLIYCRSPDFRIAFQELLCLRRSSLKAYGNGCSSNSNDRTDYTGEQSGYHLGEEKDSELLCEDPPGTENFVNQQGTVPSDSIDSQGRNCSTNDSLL
Protocol: (§1) CHO cells transfected with the bovine or porcine beta-2 adrenceptors were maintained in culture in DMEM/HAMS F12+10% FBS+2 mM glutamine+500 μg/ml geneticin (for the porcine receptor the medium was supplement with 1.5 mM HEPES) at 37° C. with a 5% CO2 atmosphere.
(§2) Cells were plated into 96 well viewplates in medium and incubated overnight at 37° C. with a 5% CO2 atmosphere. The cells were pre-incubated with 0.5 mM IBMX in PBS for 30 minutes prior to incubation with increasing concentrations of experimental compound (5×10^−12 to 10^−5 M) for 30 minutes at 37° C. with a 5% CO2 atmosphere. At the end of the incubation time the compound was removed and the cells assayed for cAMP using the DiscoveRx Hit Hunter cAMP II™ assay kit.
(§3) Duplicate samples were run for each experimental compound and the data generated was analysed using EC50 analysis software in Graphpad Prism.

[2] = target: T2, porcine beta-2 adrenoceptor (Sus scrofa, UniProt Q28997); assay: cAMP assay in CHO cells transfected with the porcine beta-2 adrenoceptor; type: cell-based; details: cAMP (DiscoveRx Hit Hunter cAMP II) in CHO cells transfected with porcine beta-2 adrenoceptor, 30 minutes with compound, 0.5 mM IBMX
T2 construct: expressed in transfected cells; host or cells: CHO cells
T2 sequence (Q28997 whole entry): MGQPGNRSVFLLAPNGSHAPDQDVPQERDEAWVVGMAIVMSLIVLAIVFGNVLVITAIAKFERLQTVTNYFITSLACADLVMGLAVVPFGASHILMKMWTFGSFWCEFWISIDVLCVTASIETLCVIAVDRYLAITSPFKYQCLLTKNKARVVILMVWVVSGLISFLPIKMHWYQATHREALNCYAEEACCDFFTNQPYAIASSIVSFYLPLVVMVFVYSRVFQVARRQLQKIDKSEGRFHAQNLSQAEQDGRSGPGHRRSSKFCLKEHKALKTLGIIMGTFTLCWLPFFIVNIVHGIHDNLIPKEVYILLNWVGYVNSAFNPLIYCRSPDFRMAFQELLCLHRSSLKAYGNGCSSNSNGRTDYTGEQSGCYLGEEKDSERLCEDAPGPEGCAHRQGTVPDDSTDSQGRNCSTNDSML
Protocol: as §1, §2, §3

SMILES	EC50 [1] [nM]	EC50 [2] [nM]
CC(CCc1cccc(Cl)c1O)N[C@@H]1CCn2c(=O)[nH]c3cccc(c32)[C@H]1O (single isomer, unassigned) [Example 5a, 6-{[3-(3-Chloro-2-hydroxyphenyl)-1-methylpropyl]amino}-7-hydroxy-4,5,6,7-tetrahydroimidazo[4,5,1-jk][1]benzazepin-2(1H)-one]	307	473
CC(CCc1cccc(NS(C)(=O)=O)c1)NC1CCn2c(=O)[nH]c3cccc(c32)C1O (single isomer, unassigned) [Example 65]	74.7	31.5
CC(CCc1cccc(CO)c1)N[C@@H]1CCn2c(=O)[nH]c3cccc(c32)[C@H]1O (mixture of isomers) [Example 44, 7-Hydroxy-6-({3-[3-(hydroxymethyl)phenyl]-1-methylpropyl}amino)-4,5,6,7-tetrahydroimidazo[4,5,1-jk][1]benzazepin-2(1H)-one]	75.7	61.7
CC(CCc1ccc(C(=O)NCC(F)(F)F)cc1)N[C@@H]1CCn2c(=O)[nH]c3cccc(c32)[C@H]1O (single isomer, unassigned) [Example 52, 4-[-3-{[7-Hydroxy-2-oxo-1,2,4,5,6,7-hexahydroimidazo[4,5,1-jk][1]benzazepin-6-yl]amino}butyl]-N-(2,2,2-trifluoroethyl)benzamide]	7.7	38.4
CC(CCc1ccc(C(=O)O)cc1)NC1CCn2c(=O)[nH]c3cccc(c32)C1O (single isomer, unassigned) [Example 68, 4-[3-{[7-Hydroxy-2-oxo-1,2,4,5,6,7-hexahydroimidazo[4,5,1-jk][1]benzazepin-6-yl]amino}butyl]benzoic acid]	198	128
CC(CCc1cc(Cl)cc(Cl)c1O)N[C@@H]1CCn2c(=O)[nH]c3cccc(c32)[C@H]1O (mixture of isomers) [Example 25, 6-{[3-(3,5-Dichloro-2-hydroxyphenyl)-1-methylpropyl]amino}-7-hydroxy-4,5,6,7-tetrahydroimidazo[4,5,1-jk][1]benzazepin-2(1H)-one]	2.2	2.7
CC(CCc1cc(F)ccc1O)N[C@@H]1CCn2c(=O)[nH]c3cccc(c32)[C@H]1O (single isomer, unassigned) [Example 7b, 6-{[3-(5-Fluoro-2-hydroxyphenyl)-1-methylpropyl]amino}-7-hydroxy-4,5,6,7-tetrahydroimidazo[4,5,1-jk][1]benzazepin-2(1H)-one]	0.3	0.5
CC(CCc1ccccc1)N[C@@H]1CCn2c(=O)[nH]c3cccc(c32)[C@H]1O (single isomer, unassigned) [Example 9b, 7-Hydroxy-6-[(1-methyl-3-phenylpropyl)amino]-4,5,6,7-tetrahydroimidazo[4,5,1-jk][1]benzazepin-2(1H)-one]	179	34.3
COC(=O)c1ccc(CC[C@@H](C)N[C@@H]2CCn3c(=O)[nH]c4cccc(c43)[C@H]2O)cc1 (single isomer, unassigned) [Example 70, Methyl 4-[3-{[7-hydroxy-2-oxo-1,2,4,5,6,7-hexahydroimidazo[4,5,1-jk][1]benzazepin-6-yl]amino}butyl]benzoate]	8.2	6.2
CC(CCc1cc(F)c(F)cc1O)N[C@@H]1CCn2c(=O)[nH]c3cccc(c32)[C@H]1O (mixture of isomers) [Example 11a, 6-{[3-(4,5-Difluoro-2-hydroxyphenyl)-1-methylpropyl]amino}-7-hydroxy-4,5,6,7-tetrahydroimidazo[4,5,1-jk][1]benzazepin-2(1H)-one]	1.21	1.15
CC(CCc1cc(F)cc(Cl)c1O)N[C@@H]1CCn2c(=O)[nH]c3cccc(c32)[C@H]1O (mixture of isomers) [Example 27, 6-{[3-(3-Chloro-5-fluoro-2-hydroxyphenyl)-1-methylpropyl]amino}-7-hydroxy-4,5,6,7-tetrahydroimidazo[4,5,1-jk][1]benzazepin-2(1H)-one]	0.6	2.2
CC(CCc1ccc(O)c(C(F)(F)F)c1)NC1CCn2c(=O)[nH]c3cccc(c32)C1O (single isomer, unassigned) [Example 60, 7-Hydroxy-6-({3-[4-hydroxy-3-(trifluoromethyl)phenyl]-1-methylpropyl}amino)-4,5,6,7-tetrahydroimidazo[4,5,1-jk][1]benzazepin-2(1H)-one]	10.5	15.9
CC(CCc1ccc(OCC2CC2)cc1)N[C@@H]1CCn2c(=O)[nH]c3cccc(c32)[C@H]1O (mixture of isomers) [Example 1a, 6-({3-[4-(Cyclopropylmethoxy)phenyl]-1-methylpropyl}amino)-7-hydroxy-4,5,6,7-tetrahydroimidazo[4,5,1-jk][1]benzazepin-2(1H)-one]	14	5.9
CC(CCc1ccccc1O)N[C@@H]1CCn2c(=O)[nH]c3cccc(c32)[C@H]1O (mixture of isomers) [Example 6a, 7-Hydroxy-6-{[3-(2-hydroxyphenyl)-1-methylpropyl]amino}-4,5,6,7-tetrahydroimidazo[4,5,1-jk][1]benzazepin-2(1H)-one]	1.5	1.5
CC(CCc1ccc(Cl)cc1Cl)N[C@@H]1CCn2c(=O)[nH]c3cccc(c32)[C@H]1O (mixture of isomers) [Example 29, 6-{[3-(2,4-Dichlorophenyl)-1-methylpropyl]amino}-7-hydroxy-4,5,6,7-tetrahydroimidazo[4,5,1-jk][1]benzazepin-2(1H)-one]	6.9	6.4
CC(CCc1cccc(F)c1O)N[C@@H]1CCn2c(=O)[nH]c3cccc(c32)[C@H]1O (mixture of isomers) [Example 28b, 6-{[3-(3-Fluoro-2-hydroxyphenyl)-1-methylpropyl]amino}-7-hydroxy-4,5,6,7-tetrahydroimidazo[4,5,1-jk][1]benzazepin-2(1H)-one]	55	80
CC(CCc1ccc(NC(=O)C(F)(F)F)cc1)NC1CCn2c(=O)[nH]c3cccc(c32)C1O (single isomer, unassigned) [Example 59]	10.4	12.1
CC(CCc1ccc(C(=O)NC2CC2)cc1)NC1CCn2c(=O)[nH]c3cccc(c32)C1O (single isomer, unassigned) [Example 64, N-Cyclopropyl-4-[3-{[7-hydroxy-2-oxo-1,2,4,5,6,7-hexahydroimidazo[4,5,1-jk][1]benzazepin-6-yl]amino}butyl]benzamide]	46.4	42.9
CNC(=O)c1cccc(CCC(C)NC2CCn3c(=O)[nH]c4cccc(c43)C2O)c1 (single isomer, unassigned) [Example 62, 3-[3-{[7-Hydroxy-2-oxo-1,2,4,5,6,7-hexahydroimidazo[4,5,1-jk][1]benzazepin-6-yl]amino}butyl]-N-methylbenzamide]	24.3	18.9
CC(CCc1ccccc1NC(=O)C(F)(F)F)N[C@@H]1CCn2c(=O)[nH]c3cccc(c32)[C@H]1O (single isomer, unassigned) [Example 51, 2,2,2-Trifluoro-N-{2-[3-{[7-hydroxy-2-oxo-1,2,4,5,6,7-hexahydroimidazo[4,5,1-jk][1]benzazepin-6-yl]amino}butyl]phenyl}acetamide]	3.6	11
